Laboratory results: patent US8802597B2, “Herbicidal pyrimidines” (E I du Pont de Nemours and Company, priority 2003, dated 2014)
Read-outs that look alike come from different tables or passages of the source.

Columns and labels:
Assay in all cases: Test C pre/postemergence
Format in all cases: in vivo
[1] = test system: johnsongrass (Sorghum halepense); details: Sorghum halepense; for pest or weed control at 31 g/ha: 31 g ai/ha; for pest or weed control at 62 g/ha: 62 g ai/ha; for pest or weed control at 125 g/ha: 125 g ai/ha; for pest or weed control at 250 g/ha: 250 g ai/ha
How it was run: (§1)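 Seeds sown and sprayed preemergence with test compound in non-phytotoxic solvent containing surfactant; postemergence sprays, same formulation, went onto plants 2 to 18 cm tall (1- to 4-leaf stage). Plants held in greenhouse 12 to 14 days, then visually rated against untreated controls on a 0–100 scale (0 no effect, 100 complete control).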

[2] = test system: yellow nutsedge (Cyperus esculentus); details: Cyperus; for pest or weed control at 31 g/ha: 31 g ai/ha; for pest or weed control at 62 g/ha: 62 g ai/ha; for pest or weed control at 125 g/ha: 125 g ai/ha; for pest or weed control at 250 g/ha: 250 g ai/ha
How it was run: as §1

[3] = test system: morningglory (Ipomoea coccinea); details: Ipomoea; for pest or weed control at 31 g/ha: 31 g ai/ha; for pest or weed control at 62 g/ha: 62 g ai/ha; for pest or weed control at 125 g/ha: 125 g ai/ha; for pest or weed control at 250 g/ha: 250 g ai/ha
How it was run: as §1

[4] = test system: kochia (Kochia scoparia); details: Bassia scoparia; for pest or weed control at 31 g/ha: 31 g ai/ha; for pest or weed control at 62 g/ha: 62 g ai/ha; for pest or weed control at 125 g/ha: 125 g ai/ha; for pest or weed control at 250 g/ha: 250 g ai/ha
How it was run: as §1

[5] = test system: velvetleaf (Abutilon theophrasti); details: Abutilon theophrasti; for pest or weed control at 31 g/ha: 31 g ai/ha; for pest or weed control at 62 g/ha: 62 g ai/ha; for pest or weed control at 125 g/ha: 125 g ai/ha; for pest or weed control at 250 g/ha: 250 g ai/ha
How it was run: as §1

[6] = test system: cocklebur (Xanthium strumarium); details: Xanthium strumarium; for pest or weed control at 31 g/ha: 31 g ai/ha
How it was run: as §1

[7] = post-emergence, Postemergence, scale 0 to 100 (0 no effect, 100 complete control), read-out: Johnsongrass plant response rating
[8] = pre-emergence, Preemergence, scale 0 to 100, 0 no effect, 100 complete control, read-out: Plant response rating, Johnsongrass
[9] = pre-emergence, Preemergence, scale 0 to 100, read-out: Plant response rating, Johnsongrass
[10] = post-emergence, Postemergence, scale 0 to 100 (0 no effect, 100 complete control), read-out: Nutsedge, Yellow plant response rating
[11] = pre-emergence, Preemergence, scale 0 to 100, 0 no effect, 100 complete control, read-out: Plant response rating, Nutsedge, Yellow
[12] = pre-emergence, Preemergence, scale 0 to 100, read-out: Plant response rating, Nutsedge, Yellow
[13] = post-emergence, Postemergence, scale 0 to 100 (0 no effect, 100 complete control), read-out: Morningglory plant response rating
[14] = pre-emergence, Preemergence, scale 0 to 100, 0 no effect, 100 complete control, read-out: Plant response rating, Morningglory
[15] = pre-emergence, Preemergence, scale 0 to 100, read-out: Plant response rating, Morningglory
[16] = post-emergence, Postemergence, scale 0 to 100 (0 no effect, 100 complete control), read-out: Kochia plant response rating
[17] = pre-emergence, Preemergence, scale 0 to 100, 0 no effect, 100 complete control, read-out: Plant response rating, Kochia
[18] = pre-emergence, Preemergence, scale 0 to 100, read-out: Plant response rating, Kochia
[19] = post-emergence, Postemergence, scale 0 to 100 (0 no effect, 100 complete control), read-out: Velvetleaf plant response rating
[20] = pre-emergence, Preemergence, scale 0 to 100, 0 no effect, 100 complete control, read-out: Plant response rating, Velvetleaf
[21] = pre-emergence, Preemergence, scale 0 to 100, read-out: Plant response rating, Velvetleaf

COC(=O)c1nc(C2CC2)nc(N)c1Br [Compound 2, methyl 6-amino-5-bromo-2-cyclopropyl-4-pyrimidinecarboxylate]
40%: pest or weed control at 250 g/ha [1, 9]
100%: pest or weed control at 125 g/ha [3, 13] | pest or weed control at 250 g/ha ([3]; post-emergence, Postemergence, scale 0 to 100, read-out: Plant response rating, Morningglory) | pest or weed control at 31 g/ha [3, 14] | pest or weed control at 62 g/ha [3, 14] | pest or weed control at 125 g/ha [3, 15] | pest or weed control at 250 g/ha [3, 15] | pest or weed control at 250 g/ha ([4]; post-emergence, Postemergence, scale 0 to 100, read-out: Plant response rating, Kochia) | pest or weed control at 250 g/ha [4, 18] | pest or weed control at 250 g/ha ([5]; post-emergence, Postemergence, scale 0 to 100, read-out: Plant response rating, Velvetleaf)
60%: pest or weed control at 250 g/ha ([1]; post-emergence, Postemergence, scale 0 to 100, read-out: Plant response rating, Johnsongrass) | pest or weed control at 31 g/ha ([6]; pre-emergence, Preemergence, scale 0 to 100, 0 no effect, 100 complete control, read-out: Plant response rating, Cocklebur)
95%: pest or weed control at 62 g/ha [4, 16] | pest or weed control at 125 g/ha [4, 16] | pest or weed control at 125 g/ha [4, 18]
0%: pest or weed control at 31 g/ha ([1]; post-emergence, Postemergence, read-out: Plant response rating (scale of 0 to 100), Johnsongrass) | pest or weed control at 62 g/ha [1, 7] | pest or weed control at 31 g/ha [1, 8] | pest or weed control at 62 g/ha [1, 8] | pest or weed control at 125 g/ha [1, 9] | pest or weed control at 31 g/ha ([2]; post-emergence, Postemergence, read-out: Plant response rating (scale of 0 to 100), Nutsedge, Yellow) | pest or weed control at 62 g/ha [2, 10] | pest or weed control at 125 g/ha [2, 10] | pest or weed control at 31 g/ha [2, 11] | pest or weed control at 62 g/ha [2, 11] | pest or weed control at 125 g/ha [2, 12] | pest or weed control at 250 g/ha [2, 12]
50%: pest or weed control at 62 g/ha [5, 20]
25%: pest or weed control at 125 g/ha [1, 7]
20%: pest or weed control at 250 g/ha ([2]; post-emergence, Postemergence, scale 0 to 100, read-out: Plant response rating, Nutsedge, Yellow) | pest or weed control at 31 g/ha [5, 20]
75%: pest or weed control at 62 g/ha [3, 13] | pest or weed control at 31 g/ha [4, 17] | pest or weed control at 125 g/ha [5, 21] | pest or weed control at 62 g/ha ([6]; post-emergence, Postemergence, 62 g ai/ha, scale 0 to 100 (0 no effect, 100 complete control), read-out: Cocklebur plant response rating)
80%: pest or weed control at 125 g/ha [5, 19]
90%: pest or weed control at 62 g/ha [4, 17] | pest or weed control at 250 g/ha [5, 21]
85%: pest or weed control at 31 g/ha ([4]; post-emergence, Postemergence, read-out: Plant response rating (scale of 0 to 100), Kochia) | pest or weed control at 125 g/ha ([6]; post-emergence, Postemergence, 125 g ai/ha, scale 0 to 100 (0 no effect, 100 complete control), read-out: Cocklebur plant response rating) | pest or weed control at 250 g/ha ([6]; post-emergence, Postemergence, 250 g ai/ha, scale 0 to 100, read-out: Plant response rating, Cocklebur)
70%: pest or weed control at 31 g/ha ([3]; post-emergence, Postemergence, read-out: Plant response rating (scale of 0 to 100), Morningglory) | pest or weed control at 62 g/ha [5, 19]
65%: pest or weed control at 31 g/ha ([5]; post-emergence, Postemergence, read-out: Plant response rating (scale of 0 to 100), Velvetleaf) | pest or weed control at 31 g/ha ([6]; post-emergence, Postemergence, read-out: Plant response rating (scale of 0 to 100), Cocklebur)
